From paper PMC4129416, “YLT192, a Novel, Orally Active Bioavailable Inhibitor of VEGFR2 Signaling with Potent Antiangiogenic Activity and Antitumor Efficacy in Preclinical Models” (Scientific Reports, 2014)
Several values for one entry are separate records, joined by “and”; a condition that tells them apart may be missing. Equal values may be shown once.

Legend:
PANC-1 = experiment: Inhibition of tumor cell growth; format: cell-based; conditions: PANC-1, human pancreatic cancer; 48 hour treatment; means ± SD, n=3
Protocol: (§1) The proliferative inhibitory ability of YLT192 on tumor cells was investigated. […] Inhibition of cell proliferation is a possible approach for cancer treatment. EdU incorporation assay was performed to investigate the anti-proliferative effects of YLT192 against U251 and HCT116 cells.
(§2) treatment with YLT192. Data are means ± SD, n=3.
(§3) cell line cell type IC50(μM) […]

Hep G2 = experiment: Inhibition of tumor cell growth; format: cell-based; conditions: HepG2; Hep G2, human hepatocellular carcinoma; 48 hour treatment; means ± SD, n=3
Protocol: as §1, §2, §3

BxPC-3 = experiment: Inhibition of tumor cell growth; format: cell-based; conditions: BxPC-3, human pancreatic cancer; 48 hour treatment; means ± SD, n=3
Protocol: as §1, §2, §3

PKA = biological target: T1, PKA (Homo sapiens, UniProt P17612); experiment: Radiometric kinase assay (Millipore Kinase Profile Service); format: biochemical; conditions: means ± SD, two independent experiments, read-out: inhibition rate at 1 μM (%)
T1 construct: purchased Millipore (Kinase Profile Service, UK)
Protocol: (§4) YLT192 was designed and synthesized in the State Key Laboratory of Biotherapy, Sichuan University (Sichuan, China). Its structural formula and synthesis route was shown in Fig. 1A and Supplementary Figure S1, respectively. The kinase inhibitory activity of YLT192 was measured by the use of radiometric assays provided by Kinase Profile Service (Millipore, UK). The effects of YLT192 on kinase activity were detected using the scintillation proximity assay method at an enzymatic level. […] In addition, the inhibitory activity of YLT192 was examined against platelet-derived growth factor receptor (PDGFR)-related kinases because of their structural similarity to the VEGFR2. […] Moreover, excellent selectivity for VEGFR2 was evident compared with a range of unrelated tyrosine and serine/threonine kinases, including fibroblast growth factor receptor 3, polo-like kinase 1, aurora-A, Axl, MET, protein kinase A, c-RAF etc.

IKKβ = biological target: T2, IKKβ (Homo sapiens, UniProt O14920); experiment: as above; format: biochemical; conditions: means ± SD, two independent experiments, read-out: inhibition rate at 1 μM (%)
T2 construct: purchased Millipore (Kinase Profile Service, UK)
Protocol: as §4

FGFR3 = biological target: T3, FGFR3 (Homo sapiens, UniProt P22607); experiment: as above; format: biochemical; conditions: means ± SD, two independent experiments, read-out: inhibition rate at 1 μM (%)
T3 construct: purchased Millipore (Kinase Profile Service, UK)
Protocol: as §4

Aurora-B = biological target: T4, Aurora-B (Homo sapiens, UniProt Q96GD4); experiment: as above; format: biochemical; conditions: means ± SD, two independent experiments, read-out: inhibition rate at 1 μM (%)
T4 construct: purchased Millipore (Kinase Profile Service, UK)
Protocol: as §4

Aurora-A = biological target: T5, Aurora-A (Homo sapiens, UniProt O14965); experiment: as above; format: biochemical; conditions: means ± SD, two independent experiments, read-out: inhibition rate at 1 μM (%)
T5 construct: purchased Millipore (Kinase Profile Service, UK)
Protocol: as §4

c-RAF = biological target: T6, c-RAF (Homo sapiens, UniProt P04049, Y340D/Y341D); experiment: as above; format: biochemical; conditions: means ± SD, two independent experiments, read-out: inhibition rate at 1 μM (%)
T6 construct: purchased Millipore (Kinase Profile Service, UK)
Protocol: as §4

Flt3 = biological target: T7, Flt3 (Homo sapiens, UniProt P36888); experiment: as above; format: biochemical; conditions: means ± SD, two independent experiments
T7 construct: purchased Millipore (Kinase Profile Service, UK)
T7 sequence (P36888 27-993): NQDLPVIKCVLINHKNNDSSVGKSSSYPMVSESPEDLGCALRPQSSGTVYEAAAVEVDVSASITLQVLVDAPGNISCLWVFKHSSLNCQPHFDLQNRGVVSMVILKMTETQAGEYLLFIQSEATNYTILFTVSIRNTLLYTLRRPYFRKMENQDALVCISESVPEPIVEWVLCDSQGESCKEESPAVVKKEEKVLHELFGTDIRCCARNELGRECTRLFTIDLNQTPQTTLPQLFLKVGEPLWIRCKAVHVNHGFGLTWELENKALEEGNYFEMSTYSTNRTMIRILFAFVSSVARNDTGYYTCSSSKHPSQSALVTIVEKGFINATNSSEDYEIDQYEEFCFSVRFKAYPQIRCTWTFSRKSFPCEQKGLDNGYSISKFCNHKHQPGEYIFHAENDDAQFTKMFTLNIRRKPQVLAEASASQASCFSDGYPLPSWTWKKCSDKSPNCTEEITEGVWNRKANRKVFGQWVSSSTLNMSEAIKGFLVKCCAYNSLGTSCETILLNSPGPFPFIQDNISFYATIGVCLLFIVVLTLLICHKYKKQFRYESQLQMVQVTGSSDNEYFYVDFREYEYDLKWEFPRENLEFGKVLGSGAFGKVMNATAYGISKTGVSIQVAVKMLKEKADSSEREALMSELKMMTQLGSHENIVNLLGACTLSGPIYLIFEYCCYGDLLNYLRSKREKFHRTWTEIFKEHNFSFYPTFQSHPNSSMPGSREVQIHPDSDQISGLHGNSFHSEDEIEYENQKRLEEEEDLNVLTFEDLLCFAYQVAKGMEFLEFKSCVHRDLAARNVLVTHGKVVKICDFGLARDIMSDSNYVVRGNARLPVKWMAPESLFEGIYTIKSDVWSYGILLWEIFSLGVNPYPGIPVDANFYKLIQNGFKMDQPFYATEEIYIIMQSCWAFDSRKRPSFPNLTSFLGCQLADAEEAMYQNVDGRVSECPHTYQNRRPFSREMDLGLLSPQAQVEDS
Protocol: as §4

CDK2/cyclinE = biological target: T8, CDK2/cyclinE (Homo sapiens, UniProt P24941); experiment: as above; format: biochemical; conditions: means ± SD, two independent experiments, read-out: inhibition rate at 1 μM (%)
T8 construct: purchased Millipore (Kinase Profile Service, UK)
Protocol: as §4

LCK = biological target: T9, LCK (Homo sapiens, UniProt P06239); experiment: as above; format: biochemical; conditions: means ± SD, two independent experiments, read-out: inhibition rate at 1 μM (%)
T9 construct: purchased Millipore (Kinase Profile Service, UK)
Protocol: as §4

PI3K = experiment: as above; format: biochemical; conditions: means ± SD, two independent experiments
Protocol: as §4

Met = biological target: T10, Met (Homo sapiens, UniProt P08581); experiment: as above; format: biochemical; conditions: means ± SD, two independent experiments, read-out: inhibition rate at 1 μM (%)
T10 construct: purchased Millipore (Kinase Profile Service, UK)
Protocol: as §4

FGFR1 = biological target: T11, FGFR1 (Homo sapiens, UniProt P11362); experiment: as above; format: biochemical; conditions: means ± SD, two independent experiments, read-out: inhibition rate at 1 μM (%)
T11 construct: purchased Millipore (Kinase Profile Service, UK)
Protocol: as §4

FGFR2 = biological target: T12, FGFR2 (Homo sapiens, UniProt P21802); experiment: as above; format: biochemical; conditions: means ± SD, two independent experiments, read-out: inhibition rate at 1 μM (%)
T12 construct: purchased Millipore (Kinase Profile Service, UK)
Protocol: as §4

mTOR = biological target: T13, mTOR (Homo sapiens, UniProt P42345); experiment: as above; format: biochemical; conditions: means ± SD, two independent experiments, read-out: inhibition rate at 1 μM (%)
T13 construct: purchased Millipore (Kinase Profile Service, UK)
Protocol: as §4

EGFR = biological target: T14, EGFR (Homo sapiens, UniProt P00533); experiment: as above; format: biochemical; conditions: means ± SD, two independent experiments, read-out: inhibition rate at 1 μM (%)
T14 construct: purchased Millipore (Kinase Profile Service, UK)
Protocol: as §4

PDGFRα = biological target: T15, PDGFRα (Homo sapiens, UniProt P16234); experiment: as above; format: biochemical; conditions: means ± SD, two independent experiments, read-out: inhibition rate at 1 μM (%)
T15 construct: purchased Millipore (Kinase Profile Service, UK)
Protocol: as §4

CDK6/cyclinD3 = biological target: T16, CDK6/cyclinD3 (Homo sapiens, UniProt Q00534); experiment: as above; format: biochemical; conditions: means ± SD, two independent experiments, read-out: inhibition rate at 1 μM (%)
T16 construct: purchased Millipore (Kinase Profile Service, UK)
Protocol: as §4

Fms = biological target: T17, Fms (Homo sapiens, UniProt P07333); experiment: as above; format: biochemical; conditions: means ± SD, two independent experiments, read-out: inhibition rate at 1 μM (%)
T17 construct: purchased Millipore (Kinase Profile Service, UK)
T17 sequence (P07333 20-972): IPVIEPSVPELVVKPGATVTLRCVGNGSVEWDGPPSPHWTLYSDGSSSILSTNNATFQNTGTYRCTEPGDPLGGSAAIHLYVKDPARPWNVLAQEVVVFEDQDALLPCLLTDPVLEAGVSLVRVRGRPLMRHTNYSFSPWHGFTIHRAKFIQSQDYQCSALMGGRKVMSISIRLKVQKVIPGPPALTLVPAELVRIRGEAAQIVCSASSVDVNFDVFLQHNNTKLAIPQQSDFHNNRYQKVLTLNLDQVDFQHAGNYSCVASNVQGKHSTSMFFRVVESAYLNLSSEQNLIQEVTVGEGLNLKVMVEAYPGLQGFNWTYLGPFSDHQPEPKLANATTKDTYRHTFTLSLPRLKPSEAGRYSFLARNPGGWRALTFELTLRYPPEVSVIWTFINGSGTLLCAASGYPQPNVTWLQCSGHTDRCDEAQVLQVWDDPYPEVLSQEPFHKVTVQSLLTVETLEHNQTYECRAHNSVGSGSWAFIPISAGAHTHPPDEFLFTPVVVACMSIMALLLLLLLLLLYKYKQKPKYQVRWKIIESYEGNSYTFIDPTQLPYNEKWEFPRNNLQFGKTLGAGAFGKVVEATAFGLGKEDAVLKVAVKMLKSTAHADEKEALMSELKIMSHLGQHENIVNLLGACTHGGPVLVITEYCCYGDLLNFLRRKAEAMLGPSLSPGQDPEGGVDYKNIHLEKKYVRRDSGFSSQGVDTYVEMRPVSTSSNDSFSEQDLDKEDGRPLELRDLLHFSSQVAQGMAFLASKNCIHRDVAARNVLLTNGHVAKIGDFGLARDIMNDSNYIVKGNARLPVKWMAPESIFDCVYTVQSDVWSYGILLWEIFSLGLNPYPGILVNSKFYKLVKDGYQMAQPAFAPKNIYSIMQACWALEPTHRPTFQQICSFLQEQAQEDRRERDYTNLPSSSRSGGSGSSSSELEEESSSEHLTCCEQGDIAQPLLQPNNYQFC
Protocol: as §4

JAK3 = biological target: T18, JAK3 (Homo sapiens, UniProt P52333); experiment: as above; format: biochemical; conditions: means ± SD, two independent experiments, read-out: inhibition rate at 1 μM (%)
T18 construct: purchased Millipore (Kinase Profile Service, UK)
T18 sequence (P52333 whole entry): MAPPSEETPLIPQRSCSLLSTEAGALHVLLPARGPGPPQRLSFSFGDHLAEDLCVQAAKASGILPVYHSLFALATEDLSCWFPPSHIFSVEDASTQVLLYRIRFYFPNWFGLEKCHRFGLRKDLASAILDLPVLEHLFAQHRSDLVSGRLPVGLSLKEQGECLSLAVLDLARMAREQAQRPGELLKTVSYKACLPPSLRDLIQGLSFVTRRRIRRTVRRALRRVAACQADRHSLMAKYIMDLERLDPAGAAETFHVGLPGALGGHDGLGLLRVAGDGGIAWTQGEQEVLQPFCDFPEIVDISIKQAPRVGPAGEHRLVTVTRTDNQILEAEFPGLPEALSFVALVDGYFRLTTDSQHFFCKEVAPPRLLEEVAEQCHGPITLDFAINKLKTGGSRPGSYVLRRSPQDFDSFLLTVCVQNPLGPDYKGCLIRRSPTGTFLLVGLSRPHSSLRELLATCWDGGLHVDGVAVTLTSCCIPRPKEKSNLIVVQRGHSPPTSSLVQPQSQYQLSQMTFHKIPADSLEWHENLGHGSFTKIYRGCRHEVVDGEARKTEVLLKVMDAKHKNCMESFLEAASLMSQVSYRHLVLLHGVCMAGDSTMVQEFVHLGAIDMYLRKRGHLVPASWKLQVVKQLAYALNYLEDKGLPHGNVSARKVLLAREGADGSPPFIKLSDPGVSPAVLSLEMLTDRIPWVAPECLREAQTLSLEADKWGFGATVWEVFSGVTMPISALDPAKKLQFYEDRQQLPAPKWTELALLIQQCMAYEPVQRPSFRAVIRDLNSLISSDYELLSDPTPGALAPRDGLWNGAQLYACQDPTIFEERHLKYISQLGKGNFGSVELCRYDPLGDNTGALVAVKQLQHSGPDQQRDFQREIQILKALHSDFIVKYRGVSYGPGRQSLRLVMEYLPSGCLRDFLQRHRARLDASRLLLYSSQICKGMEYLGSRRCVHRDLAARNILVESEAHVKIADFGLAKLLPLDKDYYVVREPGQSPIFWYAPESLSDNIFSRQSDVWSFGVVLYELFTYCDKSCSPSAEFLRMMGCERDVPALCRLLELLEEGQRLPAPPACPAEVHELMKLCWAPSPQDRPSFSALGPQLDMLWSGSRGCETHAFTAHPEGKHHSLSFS
Protocol: as §4

Axl = biological target: T19, Axl (Homo sapiens, UniProt P30530); experiment: as above; format: biochemical; conditions: means ± SD, two independent experiments, read-out: inhibition rate at 1 μM (%)
T19 construct: purchased Millipore (Kinase Profile Service, UK)
Protocol: as §4

IR = biological target: T20, IR (Homo sapiens, UniProt P06213); experiment: as above; format: biochemical; conditions: means ± SD, two independent experiments, read-out: inhibition rate at 1 μM (%)
T20 construct: purchased Millipore (Kinase Profile Service, UK)
T20 sequence (P06213 28-1382): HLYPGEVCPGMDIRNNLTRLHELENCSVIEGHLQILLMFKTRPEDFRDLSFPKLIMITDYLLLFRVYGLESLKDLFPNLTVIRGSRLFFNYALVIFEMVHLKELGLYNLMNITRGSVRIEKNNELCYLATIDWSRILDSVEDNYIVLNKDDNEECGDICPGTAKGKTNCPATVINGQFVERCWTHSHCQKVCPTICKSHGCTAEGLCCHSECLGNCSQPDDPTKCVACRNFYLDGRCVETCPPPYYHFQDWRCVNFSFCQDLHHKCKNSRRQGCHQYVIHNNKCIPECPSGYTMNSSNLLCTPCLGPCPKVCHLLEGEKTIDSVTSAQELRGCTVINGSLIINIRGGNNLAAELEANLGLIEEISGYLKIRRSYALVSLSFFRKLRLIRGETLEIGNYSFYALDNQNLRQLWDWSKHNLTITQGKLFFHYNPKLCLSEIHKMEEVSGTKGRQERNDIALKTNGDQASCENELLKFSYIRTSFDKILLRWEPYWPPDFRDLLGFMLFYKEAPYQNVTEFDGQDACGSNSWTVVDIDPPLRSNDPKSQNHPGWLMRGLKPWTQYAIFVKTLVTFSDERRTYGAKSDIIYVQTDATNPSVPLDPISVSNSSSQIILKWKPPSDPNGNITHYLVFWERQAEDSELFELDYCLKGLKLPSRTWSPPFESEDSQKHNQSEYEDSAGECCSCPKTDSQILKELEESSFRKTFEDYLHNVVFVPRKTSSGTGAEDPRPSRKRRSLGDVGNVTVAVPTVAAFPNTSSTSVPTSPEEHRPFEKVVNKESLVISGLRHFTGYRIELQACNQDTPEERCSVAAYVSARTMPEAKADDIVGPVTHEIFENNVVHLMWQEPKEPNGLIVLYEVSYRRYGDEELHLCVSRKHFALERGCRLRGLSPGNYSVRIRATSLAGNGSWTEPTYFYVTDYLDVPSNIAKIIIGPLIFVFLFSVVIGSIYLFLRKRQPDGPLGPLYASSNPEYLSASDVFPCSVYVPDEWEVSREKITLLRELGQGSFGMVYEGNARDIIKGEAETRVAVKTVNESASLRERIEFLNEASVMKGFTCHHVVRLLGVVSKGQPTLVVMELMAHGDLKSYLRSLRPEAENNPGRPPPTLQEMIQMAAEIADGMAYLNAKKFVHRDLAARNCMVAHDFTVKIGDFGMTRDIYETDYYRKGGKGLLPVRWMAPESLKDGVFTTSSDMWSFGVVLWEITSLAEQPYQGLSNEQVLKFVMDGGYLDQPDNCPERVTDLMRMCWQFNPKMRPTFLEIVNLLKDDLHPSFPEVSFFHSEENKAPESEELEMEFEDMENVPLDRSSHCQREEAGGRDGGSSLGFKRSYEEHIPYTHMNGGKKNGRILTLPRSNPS
Protocol: as §4

Ret = biological target: T21, Ret (Homo sapiens, UniProt P07949); experiment: as above; format: biochemical; conditions: means ± SD, two independent experiments, read-out: inhibition rate at 1 μM (%)
T21 construct: purchased Millipore (Kinase Profile Service, UK)
Protocol: as §4

JNK3 = biological target: T22, JNK3 (Homo sapiens, UniProt P53779); experiment: as above; format: biochemical; conditions: means ± SD, two independent experiments, read-out: inhibition rate at 1 μM (%)
T22 construct: purchased Millipore (Kinase Profile Service, UK)
T22 sequence (P53779 whole entry): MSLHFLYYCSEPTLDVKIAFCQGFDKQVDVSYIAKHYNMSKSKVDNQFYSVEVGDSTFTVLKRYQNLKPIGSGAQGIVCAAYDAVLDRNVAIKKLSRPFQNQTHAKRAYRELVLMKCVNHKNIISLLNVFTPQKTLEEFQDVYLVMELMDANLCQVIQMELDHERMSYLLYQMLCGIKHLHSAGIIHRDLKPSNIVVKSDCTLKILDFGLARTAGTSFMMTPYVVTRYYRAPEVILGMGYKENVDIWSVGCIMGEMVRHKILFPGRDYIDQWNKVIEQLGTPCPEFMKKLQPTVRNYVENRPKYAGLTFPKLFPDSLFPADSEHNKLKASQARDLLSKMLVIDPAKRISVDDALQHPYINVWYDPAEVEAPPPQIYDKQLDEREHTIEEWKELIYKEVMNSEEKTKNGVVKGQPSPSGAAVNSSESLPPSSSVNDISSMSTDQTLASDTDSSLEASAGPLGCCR
Protocol: as §4

ALK = biological target: T23, ALK (Homo sapiens, UniProt Q9UM73); experiment: as above; format: biochemical; conditions: means ± SD, two independent experiments, read-out: inhibition rate at 1 μM (%)
T23 construct: purchased Millipore (Kinase Profile Service, UK)
Protocol: as §4

PDGFRβ = biological target: T24, PDGFRβ (Homo sapiens, UniProt P09619); experiment: as above; format: biochemical; conditions: means ± SD, two independent experiments, read-out: inhibition rate at 1 μM (%)
T24 construct: purchased Millipore (Kinase Profile Service, UK)
Protocol: as §4

VEGFR2 = VEGFR2 (Homo sapiens, UniProt P35968); experiment: Cellular thermal shift assay (target engagement) in intact HUVECs; format: binding; design: stabilize the target in intact HUVECs; endogenous in cells; host or cells: primary HUVECs (passages 3-8); conditions: 40 μM, 3 h, 40-49°C
Protocol: Then we investigate whether YLT192 bind to VEGFR2 in intact HUVECs. If VEGFR2 is bound by YLT192, it will be stabilized by the physical engagement.
The ability of YLT192 to interact with, and thereby stabilize the target in intact HUVECs, was evaluated as described by Molina et al.[22] with some modifications. Briefly, subconfluent HUVECs were incubated with 40 μM YLT192 or vehicle for 3 h. Then the cells were detached with trypsin and collected in TBS containing complete protease inhibitor cocktail. The cells were divided into 4 aliquots and heated individually at 40, 43, 46, 49°C for 3 minutes. Subsequently, the cell suspensions were freeze-thawed three times using liquid nitrogen. Soluble proteins were separated from the precipitated fraction by centrifugation at 17,000 g for 20 min. The proteins were then detected with immunoblot analysis using the VEGFR2-antibody.

## CNC(=O)c1cc(Oc2ccc(NC(=O)c3cccc(OC)c3)cc2)ccn1 [YLT192]
PANC-1
  IC50: 9.8 ± 1.9 µM
Hep G2
  IC50: 7.9 ± 0.5 µM
BxPC-3
  IC50: 8.2 ± 0.6 µM
PKA
  inhibition at 1 µM: -10 ± 4%
IKKβ
  inhibition at 1 µM: 2 ± 6%
FGFR3
  inhibition at 1 µM: 4 ± 6%
Aurora-B
  inhibition at 1 µM: 23 ± 5%
Aurora-A
  inhibition at 1 µM: -1 ± 4%
c-RAF
  inhibition at 1 µM: 3 ± 3%
Flt3
  inhibition rate at 1 μM (%): 0% and −6 ± 2%
CDK2/cyclinE
  inhibition at 1 µM: -9 ± 3%
LCK
  inhibition at 1 µM: 3 ± 6%
PI3K
  inhibition rate at 1 μM (%): 0 ± 2%
Met
  inhibition at 1 µM: -2 ± 6%
FGFR1
  inhibition at 1 µM: 21 ± 3%
FGFR2
  inhibition at 1 µM: 19 ± 4%
mTOR
  inhibition at 1 µM: 0%
EGFR
  inhibition at 1 µM: 1 ± 6%
PDGFRα
  inhibition at 1 µM: 5 ± 3%
CDK6/cyclinD3
  inhibition at 1 µM: 0%
Fms
  inhibition at 1 µM: 35 ± 11%
JAK3
  inhibition at 1 µM: -7 ± 4%
Axl
  inhibition at 1 µM: -7 ± 7%
IR
  inhibition at 1 µM: 3 ± 3%
Ret
  inhibition at 1 µM: 23 ± 3%
JNK3
  inhibition at 1 µM: 3 ± 5%
ALK
  inhibition at 1 µM: -4 ± 3%
PDGFRβ
  inhibition at 1 µM: 7 ± 8%
VEGFR2
  thermal stabilization of VEGFR2: efficiently stabilized VEGFR2
